Measurements published in PubChem BioAssay (NCI).
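GI50 is the concentration that inhibits growth by half. TGI: total growth inhibition.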

Assays:
Test in all cases: NCI-60 cell line screen, 384-well format; in the data active means GI50 below about 0.43 µM; inactive means the rest
[1] = system: SK-OV-3 ovarian
[2] = system: SNB-75 CNS
[3] = system: T-47D breast
[4] = system: MDA-MB-435 melanoma
[5] = system: NCI-H23 lung
[6] = system: CAKI-1 renal
[7] = system: RXF 393 renal
[8] = system: KM12 colon
[9] = system: A498 renal
[10] = system: SF-268 CNS
[11] = system: CCRF-CEM leukemia
[12] = system: NCI-H226 lung
[13] = system: OVCAR-8 ovarian
[14] = system: NCI-H322M lung
[15] = system: HOP-62 NSCLC
[16] = system: NCI-H460 NSCLC
[17] = system: K-562 leukemia
[18] = system: UACC-257 melanoma
[19] = system: PC-3 prostate
[20] = system: MCF7 breast
[21] = system: SR leukemia
[22] = system: NCI/ADR-RES ovarian
[23] = system: HS 578T breast
[24] = system: TK-10 renal
[25] = system: NCI-H522 lung
[26] = system: HL-60(TB) leukemia
[27] = system: OVCAR-3 ovarian
[28] = system: SF-295 CNS
[29] = system: M14 melanoma
[30] = system: HT29 colon
[31] = system: DU-145 prostate
[32] = system: SW-620 colon
[33] = system: SNB-19 CNS
[34] = system: OVCAR-4 ovarian
[35] = system: EKVX NSCLC
[36] = system: HCT-15 colon
[37] = system: 786-0 renal
[38] = system: SF-539 CNS
[39] = system: LOX IMVI melanoma
[40] = system: UACC-62 melanoma
[41] = system: IGROV1 ovarian
[42] = system: COLO 205 colon
[43] = system: BT-549 breast
[44] = system: MOLT-4 leukemia
[45] = system: SN12C renal
[46] = system: SK-MEL-5 melanoma
[47] = system: MALME-3M melanoma
[48] = system: MDA-MB-468 breast
[49] = system: A549 NSCLC
[50] = system: SK-MEL-28 melanoma
[51] = system: MDA-MB-231 breast
[52] = system: ACHN renal
[53] = system: HOP-92 NSCLC
[54] = system: RPMI-8226 leukemia
[55] = system: UO-31 renal
[56] = system: HCC-2998 colon
[57] = system: OVCAR-5 ovarian

CC(C)(O)c1coc(S(=O)(=O)/N=C(\O)Nc2c3c(cc4c2CCC4)CCC3)c1
inactive: GI50 [1] > 100 µM | GI50 [2] > 100 µM | GI50 [3] > 100 µM | GI50 [4] > 100 µM | GI50 [5] > 100 µM | GI50 [6] > 100 µM | GI50 [7] > 100 µM | GI50 [8] > 100 µM | GI50 [9] > 100 µM | GI50 [10] > 100 µM | GI50 [11] > 100 µM | GI50 [12] > 100 µM | GI50 [13] > 100 µM | GI50 [14] > 100 µM | GI50 [15] > 100 µM | GI50 [16] > 100 µM | GI50 [17] > 100 µM | GI50 [18] > 100 µM | GI50 [19] > 100 µM | GI50 [20] > 100 µM | GI50 [21] > 100 µM | GI50 [22] > 100 µM | GI50 [23] > 100 µM | GI50 [24] > 100 µM | GI50 [25] > 100 µM | GI50 [26] > 100 µM | GI50 [27] > 100 µM | GI50 [28] > 100 µM | GI50 [29] > 100 µM | GI50 [30] > 100 µM | GI50 [31] > 100 µM | GI50 [32] > 100 µM | GI50 [33] > 100 µM | GI50 [34] > 100 µM | GI50 [35] > 100 µM | GI50 [36] > 100 µM | GI50 [37] > 100 µM | GI50 [38] > 100 µM | GI50 [39] > 100 µM | GI50 [40] > 100 µM | GI50 [41] > 100 µM | GI50 [42] > 100 µM | GI50 [43] > 100 µM | GI50 [44] > 100 µM | GI50 [45] > 100 µM | GI50 [46] > 100 µM | GI50 [47] > 100 µM | GI50 [48] > 100 µM | GI50 [49] > 100 µM | GI50 [50] > 100 µM | GI50 [51] > 100 µM | GI50 [52] > 100 µM | GI50 [53] > 100 µM | GI50 [54] > 100 µM | GI50 [55] > 100 µM | GI50 [56] > 100 µM | GI50 [57] > 100 µM
> 100 µM: TGI [1] | TGI [2] | TGI [3] | TGI [4] | TGI [5] | TGI [6] | TGI [7] | TGI [8] | TGI [9] | TGI [10] | TGI [11] | TGI [12] | TGI [13] | TGI [14] | TGI [15] | TGI [16] | TGI [17] | TGI [18] | TGI [19] | TGI [20] | TGI [21] | TGI [22] | TGI [23] | TGI [24] | TGI [25] | TGI [26] | TGI [27] | TGI [28] | TGI [29] | TGI [30] | TGI [31] | TGI [32] | TGI [33] | TGI [34] | TGI [35] | TGI [36] | TGI [37] | TGI [38] | TGI [39] | TGI [40] | TGI [41] | TGI [42] | TGI [43] | TGI [44] | TGI [45] | TGI [46] | TGI [47] | TGI [48] | TGI [49] | TGI [50] | TGI [51] | TGI [52] | TGI [53] | TGI [54] | TGI [55] | TGI [56] | TGI [57]
